How the values were obtained:
LRO4 [1] = assay: Competitive phage ELISA, phage binding to LRO4 in presence of MDA-LDL; set-up: species or system murine; settings: in the presence of 50 μg/mL MDA-LDL
Experimental: For competitive phage ELISA, plates were coated with 5 μg/mL LRO4 and binding of 25 μL of phage solution at 2×10^10 pfu/mL was tested in the presence of 25 μL of MDA-LDL at 100 μg/mL. Bound phages were detected as described above and data expressed as values obtained in presence of competitor (B) divided by the values obtained in the absence of competitor (B0). A reciprocal competition assay was performed in which 50 μL of 5 μg/mL MDA-LDL was coated on microtiter wells, and binding of LRO4 that was preincubated for 30 min at RT with a solution containing either no or 1×10^10 pfu/mL phages with or without peptide was tested by chemiluminescent ELISA.
Table 2A-B. Binding characteristics of MDA-phagotopes. Sequences and binding characteristics of selected phagotopes from (A) the Ph.D.-12 and (B) the Ph.D.7C7 libraries, respectively. Individual phages were selected and amplified after the third round of biopanning, and binding to an isotype control IgM, LRO4, and LRO4 in the presence of 50 μg/mL MDA-LDL was measured by phage ELISA, as described in Methods. Numbers indicate OD values or for inhibition studies the fraction of OD values obtained in the absence and presence of soluble MDA-LDL (B/B0). Sequences indicate amino acid residues in peptide sequences that were deducted from the DNA sequence of each phagotope. “X” indicates an unidentified amino acid at this position. * for clones with identical sequence representative data of one clone are provided. (SEQ ID NOs:6-37)

LRO4 [2] = assay: Phage ELISA, binding of phage clones to coated LRO4; set-up: species or system murine; settings: 10^10 pfu/ml, OD 405-490 nm
Experimental: (§1) Phage ELISA was performed as described by NEB with minor modifications. Ninety six-well ELISA plates (Nunc Maxisorp) were coated with 5 μg/mL LRO4 mAb or control IgM mAb in NaHCO3 buffer (pH 8.6) at 50 μL/well ON at 4° C. Wells were washed with TBS containing 0.5% Tween 20 and then blocked with blocking buffer (TBS-T containing 1% BSA) at 200 μL/well for 1 hour at RT. After further washing, 10^10 pfu/ml of phage amplificates diluted in blocking buffer were added to the wells at 50 μL/well for 2 hours at RT. Wells were washed again, and an HRP-labeled anti-M13 mAb conjugate (no. 27-9421-01; GE Healthcare, Amersham, UK) diluted 1:1,000 in blocking buffer was added for 1 hour at RT followed by the addition of an 2,2′-azino-bis(3-ethylbenzothiazoline-6-sulphonic acid) (ABTS) (Sigma-Aldrich) substrate solution for 1 hour at RT. The binding reactivity of selected phage clones was measured at OD 405-490 nm using a BioTek Synergy 2 plate reader.

isotype control IgM = assay: Phage ELISA, binding of phage clones to isotype control IgM; settings: 10^10 pfu/ml, OD 405-490 nm
Experimental: Briefly, LRO4 or a control isotype anti-KLH IgM Ab (C48-6; BD Bioscience-Pharmingen, USA) were coated in buffer containing 0.1 M NaHCO3 (pH 8.5) on ELISA plates (Nunc Maxisorp, Roskilde, Denmark) overnight (ON) at 4° C. at a concentration of 100 μg/ml for the 1st, 50 μg/ml for the 2nd, and 10 μg/ml for the 3rd biopanning round. The next day, wells were washed with TBS containing 0.05% v/v Tween 20 (TBS-T) and incubated with blocking buffer containing 0.1M NaHCO3 (pH 8.6) and 5 mg/mL bovine serum albumin (BSA) for 1 hour at room temperature (RT). After further washing with TBS-T, 10 μL of a library solution (containing 2×10^12 phages) diluted in 100 μl of blocking buffer were first added to wells coated with control IgM (negative selection) and then unbound phages were transferred to wells coated with LRO4 (positive selection) and incubated at RT. The incubation time for negative or positive selection was reduced from 60 min for the 1st round to 30 min for the 2nd as well as 3rd biopanning round. Thereafter, plates were washed 5 times with TBS-T to remove unbound phages. To further elute nonspecifically bound phages, wells were incubated with 100 μL of 100 μg/ml of native LDL for 1 hour at RT. After washing up to 5 times with TBS-T, bound phages were eluted with 100 μL of elution buffer containing 0.2 M glycine-HCl (pH 2.2) and 1 mg/mL BSA. Eluates were transferred to microfuge tubes and neutralized with 15 μL of 1 M Tris-HCL (pH 9.1). The eluted phages were then titrated and amplified for the next round of panning. The 2nd and 3rd biopanning round was carried out using amplified eluates from the first and second round as input phages, respectively. To remove nonspecifically bound phages and to increase the affinity in the subsequent biopanning rounds, wells were washed 15 and 30 times with 0.1% TBS-T in the 2nd and 0.5% TBS-T in the 3rd rounds of biopanning, respectively. In the last biopanning round, LRO4-bound phages were competitively eluted with increasing concentrations (3-150 μg/mL) of MDA-LDL diluted in blocking buffer followed by elution using elution buffer.
as §1

[3] = Table 2B, Ph.D.7C7 library clones
[4] = Table 2A, Ph.D.-12 library clones

Row | Substance | Inhibition of binding to LR04 (B/Bo) (LRO4 [1]; [3]) | Binding of phages to LR04 (LRO4 [2]; [3]) [OD] | Binding of phages to control IgM (isotype control IgM; [3]) [OD] | Inhibition of binding to LR04 (B/Bo) (LRO4 [1]; [4]) | Binding of phages to LR04 (LRO4 [2]; [4]) [OD] | Binding of phages to control IgM (isotype control IgM; [4]) [OD]
1 | NNSKMRL [Ca2] | 0.12 | 0.8 | 0.2 | – | – | –
2 | NNSHMPL [Ca9, Cb3, Ca8, Ca10] | 0.04 | 0.9 | 0.2 | – | – | –
3 | ASISNLTLSRFM [M15] | – | – | – | 0.15 | 1.34 | 0.04
4 | DWAPHFT [Cb2] | 0.03 | 1.0 | 0.2 | – | – | –
5 | EVMNNWTLASIM [M30] | – | – | – | 0.06 | 1.04 | 0.03
6 | NNSNMPL [Cb10] | 0.02 | 0.6 | 0.2 | – | – | –
7 | NNQNMPL [Cb9] | 0.02 | 0.7 | 0.01 | – | – | –
8 | NNSXMPL [Ca6] | 0.04 | 0.7 | 0.0 | – | – | –
9 | HRMTNNAMDVFM [M6, G10] | – | – | – | 0.20 | 1.56 | 0.03
10 | NNRNMPL [Ca59, Cb1] | 0.06 | 0.8 | 0.1 | – | – | –
11 | HQLSNKDEQTPQ [A33] | – | – | – | 0.14 | 0.63 | 0.05
12 | HRLTNSEQAALP [M3, M5] | – | – | – | 0.10 | 1.56 | 0.03
13 | HRISNYAMELHS [G4] | – | – | – | 0.10 | 1.45 | 0.04
14 | TAVTNSMMERLW [M8] | – | – | – | 0.20 | 1.57 | 0.04
15 | NSRTNNSQWTFQ [A34] | – | – | – | 0.11 | 0.82 | 0.11
16 | HSWSNYWGHQHA [A32] | – | – | – | 0.18 | 0.98 | 0.02

— US20150056209A1, “PEPTIDE MIMOTOPES TO OXIDATION SPECIFIC EPITOPES” (The Regents of the University of California, priority 2012, published 2015)
